Experimental data from the NIST ThermoML archive (doi:10.1016/j.jct.2018.01.021).

Test: mn = molality of the nth substance listed, in mol/kg
Conditions: 100 kPa, Liquid; for speed of sound: Frequency=3 MHz, Single path-length method; for mass density: Vibrating tube method

O [water] + C[N+](C)(C)[O-]
m2 = 0
Conditions	speed of sound [m/s]
298.15 K	1497.7
308.15 K	1520.7

C[N+](C)(C)C[C@H](O)CC(=O)[O-] [(R)-3-hydroxy-4-(trimethylammonio)butanoate] + O
Conditions	mass density [kg/m3]	speed of sound [m/s]
293.15 K, m1 = 0.0937	1001.09	1492.4
293.15 K, m1 = 0.1233	1001.98	1495.2
293.15 K, m1 = 0.1554	1002.94	1498.3
293.15 K, m1 = 0.1924	1004.04	1501.8
293.15 K, m1 = 0.2249	1004.99	1504.9
293.15 K, m1 = 0.2574	1005.94	1507.9
293.15 K, m1 = 0.276	1006.48	1509.7
293.15 K, m1 = 0.3064	1007.35	1512.5
298.15 K, m1 = 0.0497	998.57	1502.3
298.15 K, m1 = 0.0994	1000.06	1506.9
298.15 K, m1 = 0.1214	1000.71	1508.9
298.15 K, m1 = 0.1509	1001.58	1511.6
298.15 K, m1 = 0.2007	1003.03	1516.1
298.15 K, m1 = 0.2203	1003.6	1517.8
298.15 K, m1 = 0.2572	1004.66	1521.2
298.15 K, m1 = 0.3012	1005.91	1525.1
303.15 K, m1 = 0.0477	997.1	1514.3
303.15 K, m1 = 0.1029	998.75	1519.2
303.15 K, m1 = 0.1227	999.33	1521
303.15 K, m1 = 0.1531	1000.21	1523.6
303.15 K, m1 = 0.2046	1001.71	1528.1
303.15 K, m1 = 0.2174	1002.07	1529.2
303.15 K, m1 = 0.255	1003.14	1532.4
303.15 K, m1 = 0.3041	1004.51	1536.7
308.15 K, m1 = 0.0512	995.58	1525.2
308.15 K, m1 = 0.0938	996.84	1528.8
308.15 K, m1 = 0.1229	997.69	1531.2
308.15 K, m1 = 0.1447	998.32	1533.1
308.15 K, m1 = 0.1952	999.78	1537.3
308.15 K, m1 = 0.2238	1000.59	1539.7
308.15 K, m1 = 0.2282	1000.71	1540.1
308.15 K, m1 = 0.304	1002.84	1546.4
313.15 K, m1 = 0.0519	993.75	1534.1
313.15 K, m1 = 0.1012	995.21	1538.2
313.15 K, m1 = 0.1204	995.77	1539.7
313.15 K, m1 = 0.1428	996.42	1541.5
313.15 K, m1 = 0.1922	997.84	1545.5
313.15 K, m1 = 0.2107	998.36	1547
313.15 K, m1 = 0.2436	999.29	1549.7
313.15 K, m1 = 0.3053	1001	1554.7

O [water] + C[N+](C)(C)C[C@H](O)CC(=O)[O-]
m2 = 0
Conditions	speed of sound [m/s]
298.15 K	1497.7
308.15 K	1520.7

O [water] + O=C[C@H](O)[C@@H](O)[C@H](O)[C@H](O)CO
Conditions	speed of sound [m/s]
298.15 K, m2 = 0	1497.7

C[N+](C)(C)[O-] [trimethylamine oxide] + O
m1 = 1.08
Conditions	mass density [kg/m3]	speed of sound [m/s]
293.15 K	1000.9	1564.8
298.15 K	999.7	1575.7
303.15 K	998.26	1584.2
308.15 K	996.53	1589.4
313.15 K	994.81	1595.5

[Cl-].[Na+] [sodium chloride] + O
298.15 K
Conditions	mass density [kg/m3]	speed of sound [m/s]
m1 = 0.151	1003.43	1507.5
m1 = 1.021	1037.99	1560.5

O [water] + [Cl-].[Na+]
Conditions	speed of sound [m/s]
298.15 K, m2 = 0	1497.7

O=C[C@H](O)[C@@H](O)[C@H](O)[C@H](O)CO [D-glucose] + O
298.15 K
Conditions	mass density [kg/m3]	speed of sound [m/s]
m1 = 0.153	–	1507.3
m1 = 1.13	1064.98	1565.3
